Experimental data as given in publication PMC10683472, “Deep Learning-Driven Library Design for the De Novo Discovery of Bioactive Thiopeptides” (ACS Central Science, 2023).
Where two headings read alike, the source gives them in different places. Where a SMILES comes first, the peptide text is derived from it. Where no end group is shown, it is not given here. [ ]: non-standard residue; d: D form. pyridine‑bisazole = not defined here; Nle = CCCC[C@H](N)C(=O)O; Dhb = C/C=C(\N)C(=O)O

T1: Biotinylated IRAK4 (kinase domain, amino acids 1-460; NP_057207.2) (Homo sapiens, UniProt Q9NWZ3)
T1 construct: acids 1-460; NP_057207.2) was purchased from Carna Biosciences; purchased Carna Biosciences (Kobe, Japan)
T1 sequence (Q9NWZ3 1-460): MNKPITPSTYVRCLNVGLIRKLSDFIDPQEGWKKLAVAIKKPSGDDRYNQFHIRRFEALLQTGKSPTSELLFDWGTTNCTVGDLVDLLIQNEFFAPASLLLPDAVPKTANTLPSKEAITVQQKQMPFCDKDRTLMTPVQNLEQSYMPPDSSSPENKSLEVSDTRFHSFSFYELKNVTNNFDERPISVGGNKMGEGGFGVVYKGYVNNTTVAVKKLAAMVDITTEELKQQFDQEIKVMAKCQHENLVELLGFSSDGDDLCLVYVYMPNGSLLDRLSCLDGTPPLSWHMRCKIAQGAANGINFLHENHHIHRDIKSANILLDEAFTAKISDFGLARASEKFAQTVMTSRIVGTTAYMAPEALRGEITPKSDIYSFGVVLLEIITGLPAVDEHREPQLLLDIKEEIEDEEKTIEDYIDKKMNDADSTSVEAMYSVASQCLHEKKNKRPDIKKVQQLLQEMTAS

T2: IRAK4 (Homo sapiens, UniProt Q9NWZ3)
T2 sequence (Q9NWZ3 1-460): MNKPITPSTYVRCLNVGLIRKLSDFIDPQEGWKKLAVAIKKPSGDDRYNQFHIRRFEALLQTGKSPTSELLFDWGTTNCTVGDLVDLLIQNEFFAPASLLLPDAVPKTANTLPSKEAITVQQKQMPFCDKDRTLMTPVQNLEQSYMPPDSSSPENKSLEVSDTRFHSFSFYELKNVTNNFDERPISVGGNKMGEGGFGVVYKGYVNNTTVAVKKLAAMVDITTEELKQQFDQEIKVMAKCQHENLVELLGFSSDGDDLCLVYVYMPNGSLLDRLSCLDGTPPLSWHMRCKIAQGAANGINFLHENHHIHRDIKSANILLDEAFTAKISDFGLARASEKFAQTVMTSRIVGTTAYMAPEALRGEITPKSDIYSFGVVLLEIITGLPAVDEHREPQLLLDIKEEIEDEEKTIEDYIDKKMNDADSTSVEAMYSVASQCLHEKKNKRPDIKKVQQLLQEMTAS

T3: interleukin-1 receptor-associated kinase 4 (UniProt Q9NWZ3 1-460)
T3 sequence (looked up): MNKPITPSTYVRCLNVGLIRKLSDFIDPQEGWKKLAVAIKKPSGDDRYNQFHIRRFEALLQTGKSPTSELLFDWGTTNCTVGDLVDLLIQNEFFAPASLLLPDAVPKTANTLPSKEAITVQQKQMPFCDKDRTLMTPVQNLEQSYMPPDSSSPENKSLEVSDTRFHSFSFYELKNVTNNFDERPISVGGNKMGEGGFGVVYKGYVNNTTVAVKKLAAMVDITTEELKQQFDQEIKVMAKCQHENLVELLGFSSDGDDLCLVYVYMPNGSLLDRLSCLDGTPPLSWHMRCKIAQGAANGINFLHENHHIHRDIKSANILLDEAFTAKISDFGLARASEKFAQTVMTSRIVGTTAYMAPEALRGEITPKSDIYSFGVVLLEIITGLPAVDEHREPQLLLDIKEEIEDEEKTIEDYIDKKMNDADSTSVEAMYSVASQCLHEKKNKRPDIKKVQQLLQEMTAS


How the values were obtained:
[1] = target: T1, Biotinylated IRAK4 (kinase domain, amino acids 1-460; NP_057207.2); assay: Surface plasmon resonance binding to IRAK4
From the text: Reagents were purchased from Nacalai Tesque, Wako Pure Chemical Industries, Sigma-Aldrich Japan, or TCI Chemicals and were used as received. Biotinylated IRAK4 (kinase domain, amino acids 1-460; NP_057207.2) was purchased from Carna Biosciences (Kobe, Japan). Recombinant human TLR10 Fc Chimera protein (extracellular domain, amino acid 20-576; Q9BXR5) was purchased from R&D system (#6619-TR-050). Anti-HA magnetic beads were from Pierce Thermo Fisher Scientific (#88836). Magnetic beads with immobilized streptavidin were from Invitrogen (Dynabeads Streptavidin C1, # 65001). Magnetic beads with immobilized streptavidin were from Invitrogen (Dynabeads Streptavidin M280, #11206D).
Protein purification and synthesis of Streptomyces lactacystinaeus tRNAGlu were done as previously described.1–3 Protein concentration measurements were carried out on a Nanodrop 2000c spectrophotometer (Thermo Scientific) equipped with a 5 mm pathlength quartz cuvette using extinction coefficient values calculated with ExPASy ProtParam tool (https://web.expasy.org/protparam).
Biochemical measurements (sections 2.10 – 2.14) were performed in triplicate or more. Most experiments were reproduced to an analogous outcome at least once. In the cases where the determination of biophysical parameters involved cell assay (CP50 and IC50), reported are standard errors of the fit; otherwise, error bars are standard deviations.
RNA extracted from the gel with 300 mM NaCl were collected by ethanol precipitation followed by centrifugation (15300 g for 15 min) and dissolved in water for storage. tRNAini was aminoacylated with eFx using biotin-Phe-CME as a substrate. tRNAini (25 µM) and eFx (25 µM) were incubated with biotin-Phe-CME (5 mM) in HEPES-KOH buffer (50 mM; pH 7.5) containing 600 mM MgCl2 on ice for 2 h. The reactions were stopped with the addition of 300 mM NaOAc (pH 5.2), and precipitated with ethanol. Precipitated RNA was recovered by centrifugation (15300 g for 15 min). The pellet was washed with 70% ethanol in water (v/v) containing 100 mM NaOAc (pH 5.2) and used in translation.
2.10. Surface plasmon resonance
Binding affinities between the thiopeptides and IRAK4/TLR10 were measured with a Biacore 8K instrument (GE Healthcare) at 25 °C. The assay buffer for IRAK4 binding analysis contained 50 mM Tris (pH 7.5), 150 mM NaCl, 10 mM MgCl2, 0.05% (v/v) tween-20 and 0.1% (v/v) DMSO. The […]
Biotinylated IRAK4 was immobilized on a Biacore CAP chip (GE Healthcare) to a surface density […]
step was allowed to proceed for 480 s. Kinetic parameters and affinities of the interaction were […]
provided by the manufacturer. The interaction sensorgrams were measured as single -cycle […]
Kinetic parameters and affinities of the
Evaluation Software v.3.0 (GE Healthcare).

[2] = tested on: lipopolysaccharide-induced NF-κB signaling in THP1-XBlue cells; assay: NF-kB signaling pathway inhibition assay (SEAP reporter, LPS-stimulated); format: cell-based; settings: THP1-XBlue monocytes, 6 h pre-treatment, LPS-EK 30 ng/mL, SEAP read 20 h after induction
Protocol: (§1) 2.13. NF-kB signaling pathway inhibition assay
(§2) THP-1 Cellular Assay. THP1-XBlue cells containing an NF-kB-inducible secreted embryonic alkaline phosphatase (SEAP) reporter gene (InvivoGen) were seeded to 96-well assay plates (10^5 cells/well) with RPMI 1640 culture medium containing 10% fetal calf serum. The cells were pre-treated with various concentration of analyte thiopeptide inhibitor in 0.1% DMSO and incubated at 37 °C for 6 h. LPS-EK (30 ng/mL, InvivoGen) was subsequently added to activate the NF-kB signalling for 20 h. To quantitate SEAP activity, supernatants were harvested (300 g, 5min) and mixed with Quanti-Blue (InvivoGen) detection reagent following the manufacturer’s instructions.
(§3) Cells were assayed with cell counting kit-8 in parallel to rule out potential cytotoxicity. The plates

THP1-XBlue cells = assay: Cell viability with Cell Counting Kit-8
Protocol: as §1, §2, §3

[3] = tested on: HaloTag expressing HEK293H cells; assay: Chloroalkane penetration assay (CAPA); settings: 18 h, chloroalkane tag-containing derivatives IR1-ct and IR5-ct
From the text: The role of IRAK4 as a kinase acting downstream of TLR and interleukin-1 receptors to phosphorylate IRAK1 and transduce immunological signals is well-established.[37] […] Therefore, we investigated the inhibitory activity of thiopeptides IR1, 5, 8, and 11. […] We first prepared chloroalkane tag-containing derivatives, IR1-ct and IR5-ct (S.I. 5.3), and utilized them in a chloroalkane penetration assay[49] to test their cellular uptake. […]

Serum stability assay = format: in vitro ADME; settings: human serum, 37 °C, LC/MS; for half-life at 10 µM: pH 7.6, read-out: serum stability τ1/2 (converted)
IRAK4 [4] = target: T2, IRAK4; assay: biochemical
IRAK4 [5] = target: T2, IRAK4; assay: Single-round mRNA display binding assay (qPCR), IRAK4; design: acids 1-460; NP_057207.2) was purchased from Carna Biosciences; purchased Carna Biosciences (Kobe, Japan); settings: ratio of cDNA recoveries (qPCR), IRAK4 pulldown over beads only, single-round selection
IRAK4 [6] = target: T2, IRAK4; assay: mRNA display affinity selection against IRAK4, NGS abundance; format: binding; design: acids 1-460; NP_057207.2) was purchased from Carna Biosciences; purchased Carna Biosciences (Kobe, Japan); settings: IRAK4 selection, NGS abundance rank
[7] = target: T3, interleukin-1 receptor-associated …; assay: cell-based or functional assay
[8] = target: T3, interleukin-1 receptor-associated …; assay: SPR; synthetic thiopeptides and target protein; conditions in S.I. 2.10 (not shown); settings: both partners purified

Molecule	koff [1]	kon [1]	IC50 [2]	cytotoxicity (Cell Counting Kit-8) (THP1-XBlue cells)	CP50 (midpoint internalization concentration) [3]	half-life at 10 µM (Serum stability assay)	IC50 (IRAK4 [4])	display P/N ratio (IRAK4 [5])	rank in pulldown(+) (IRAK4 [6])	rank in pulldown(–) (IRAK4 [6])	koff ([1]; SPR, IRAK4, read-out: koff)	kon ([1]; SPR, IRAK4, read-out: kon)	cytotoxicity (Cell Counting Kit-8) (THP1-XBlue cells; at the tested concentrations)	serum stability τ1/2 (Serum stability assay)	IC50, lipopolysaccharide-induced NF-κB signaling (secreted alkaline phosphatase reporter) in THP1-XBlue monocytes [7]	Kd [8]
C=C1NC(=O)C(=CC)NC(=O)[C@H](Cc2c[nH]c3ccccc23)NC(=O)[C@H](Cc2c[nH]cn2)NC(=O)[C@H](Cc2c[nH]c3ccccc23)NC(=O)[C@H]([C@@H](C)O)NC(=O)[C@H]([C@@H](C)CC)NC(=O)[C@H](Cc2ccccc2)NC(=O)[C@H](CCC(N)=O)NC(=O)[C@H](CCCNC(=N)N)NC(=O)[C@H](CCCCN)NC(=O)[C@H](CCCC)NC(=O)[C@H](CO)NC(=O)[C@H](Cc2c[nH]c3ccccc23)NC(=O)c2ccc(-c3nc(C(=O)OC)cs3)nc2-c2csc1n2 [IR1] (HELM PEPTIDE1{W.S.[Nle].K.R.Q.F.I.T.W.H.W.[CC=C(N[*:1])C(=O)[*:2]]}|CHEM1{[C=C(N[*:2])c1nc(-c2nc(-c3nc(C(=O)OC)cs3)ccc2C(=O)[*:1])cs1]}$PEPTIDE1,CHEM1,1:R1-1:R1|PEPTIDE1,CHEM1,13:R2-1:R2$$$V2.0; bridges inferred)	0.00054 s⁻¹	2930 M⁻¹ s⁻¹	7 µM	not cytotoxic	2.4 µM	234 ± 6 min	3.1 ± 0.3 µM	1829	3	1	–	–	–	–	–	–
C=C1NC(=O)[C@H](CCCCN)NC(=O)[C@H](Cc2ccc(O)cc2)NC(=O)[C@H]([C@@H](C)CC)NC(=O)[C@H](CCCNC(=N)N)NC(=O)[C@H](CCCNC(=N)N)NC(=O)[C@H](CCCCN)NC(=O)[C@H](Cc2ccccc2)NC(=O)[C@H](CC(C)C)NC(=O)[C@H](CCSC)NC(=O)[C@H](CO)NC(=O)[C@H](Cc2c[nH]c3ccccc23)NC(=O)c2ccc(-c3nc(C(=O)OC)cs3)nc2-c2csc1n2 [IR5] (HELM PEPTIDE1{W.S.M.L.F.K.R.R.I.Y.K}|CHEM1{[C=C(N[*:2])c1nc(-c2nc(-c3nc(C(=O)OC)cs3)ccc2C(=O)[*:1])cs1]}$PEPTIDE1,CHEM1,1:R1-1:R1|PEPTIDE1,CHEM1,11:R2-1:R2$$$V2.0; bridges inferred)	–	–	7.8 µM	–	14.8 µM	78 ± 1.2 min	5.1 ± 0.4 µM	376	1	2	0.0037 s⁻¹	2.92e+06 M⁻¹ s⁻¹	not cytotoxic	–	–	–
C=C1NC(=O)[C@H](Cc2c[nH]cn2)NC(=O)[C@@H]2CCCN2C(=O)[C@H](CCCNC(=N)N)NC(=O)[C@H](CCCNC(=N)N)NC(=O)[C@H](CCCNC(=N)N)NC(=O)[C@H](C)NC(=O)[C@H](Cc2c[nH]c3ccccc23)NC(=O)[C@H](Cc2ccc(O)cc2)NC(=O)[C@H](CC(C)C)NC(=O)[C@H](CO)NC(=O)[C@H](CCSC)NC(=O)[C@H](C)NC(=O)[C@H](Cc2c[nH]c3ccccc23)NC(=O)c2ccc(-c3nc(C(=O)OC)cs3)nc2-c2csc1n2 [IR11] (HELM PEPTIDE1{W.A.M.S.L.Y.W.A.R.R.R.P.H}|CHEM1{[C=C(N[*:2])c1nc(-c2nc(-c3nc(C(=O)OC)cs3)ccc2C(=O)[*:1])cs1]}$PEPTIDE1,CHEM1,1:R1-1:R1|PEPTIDE1,CHEM1,13:R2-1:R2$$$V2.0)	–	–	–	–	–	30 ± 2.4 min	4.1 ± 0.3 µM	1072	30	15	0.0021 s⁻¹	783 M⁻¹ s⁻¹	–	0.5 h	–	–
SWS[Nle]KRQFITWHW[Dhb]SCSC (bridge (positions not given here) via pyridine‑bisazole; not fully specified; reading uncertain; also: dehydroamino acids, macrocycle with pyridine-bisazole moiety, oxazole to thiazole mutation) [thiopeptide IR1 (synthetic)]	–	–	–	–	–	–	–	–	–	–	–	–	–	–	7 µM	–
SWSMLFKRRIYKSCSC (bridge (positions not given here) via pyridine‑bisazole; reading uncertain; also: macrocyclic lactazole-like thiopeptide with pyridine-bisazole moiety, places not given here, dehydroamino acids, places not given here) [thiopeptide IR5 (synthetic)]	–	–	–	–	–	–	–	–	–	–	–	–	–	–	7.8 µM	1.3 nM
